Test results reported in patent US20080113032A1, “Scalp Desensitizing Formulation” (BMM PowerMoves, LLC, priority 2001, published 2008).

How the values were obtained:
[1] = Recrystallization of benzocaine from the formulation after cooling to room temperature; assay type: physicochemical
Description: The formulation is prepared by first mixing the topical anesthetic, solubilizer, homopolymers and copolymers together and heating the mixture at about 80° C. while stirring. The perfume oil, skin conditioning oils and water or a thickening agent, depending on the type of composition desired, can be added after dissolution of all of the above components being heated has occurred.
This overall recrystallization problem is easily remedied by reheating the mixture either in a hot water bath or briefly in a microwave oven (<10 seconds). […] This is an improvement over the known art.
The following components were dissolved by stirring while heating in a water bath at 80° C. All of the following protocols are actual experiments developed for the production of the formulation.
After the above components were dissolved, the following components were added to the resulting solution while still heating.
The solution was then cooled to room temperature.

scalp or skin = experiment: Desensitization of the scalp or skin, pain relief in hair treatment and manipulation procedures; assay type: in vivo; settings: benzocaine concentration approximately 20 to 30 weight percent of the formulation

CCOC(=O)c1ccc(N)cc1 [benzocaine, ethyl-p-aminobenzoate]
recrystallization ([1]; about 20 weight percent benzocaine, after 24 hours): very small amount of recrystallization may be observed | benzocaine staying in solution ([1]; about 20 weight percent benzocaine, formulation cooled to room temperature): stays in solution | re-solubility of the reheated mixture ([1]; about 22 to about 30 weight percent benzocaine, reheated in hot water bath or microwave oven (<10 seconds)): Total re-solubility is achieved | precipitation in the mixture ([1]; about 22 to about 30 weight percent benzocaine, several hours after cooling to room temperature): some precipitation is observed | relief of pain associated with hair treatment and manipulation procedures (scalp or skin): effective at relieving the pain
